Assay results as given in paper PMC6199744, “Development of Chemical Proteomics for the Folateome and Analysis of the Kinetoplastid Folateome” (ACS Infectious Diseases, 2018).

Tested on: L. major lysate proteins
Test: Multitargeted bead mixture chemoproteomics, single concentration competition, proteome-wide
Assay type: binding
Conditions: for fold change / fold change relative to vehicle control: vehicle control = 1; for fold change relative to vehicle control: competition with free ligand

CCCCCCOc1ccc(Cc2cnc(N)nc2N)cc1 [compound 1]
fold change (protein LMJF.22.1460 I/6 AUTOANTIGEN-LIKE PROTEIN): 0.95 | fold change vs vehicle control (protein LMJF.22.1540 ALANYL-TRNA SYNTHETASE, PUTATIVE): 0.85 | fold change vs vehicle control (protein LMJF.23.0370 […] OXIDASE SUBUNIT 10, PUTATIVE): 1.08 | fold change (protein LMJF.23.0830 NA/H ANTIPORTER-LIKE PROTEIN): 0.89 | fold change (protein LMJF.23.1020 HYPOTHETICAL PROTEIN, UNKNOWN FUNCTION): 0.87 | fold change (protein LMJF.23.1220 T-COMPLEX PROTEIN 1, GAMMA SUBUNIT, PUTATIVE): 1.03 | fold change vs vehicle control (protein LMJF.24.0140 ANKYRIN/TPR REPEAT PROTEIN): 1.09 | fold change (protein LMJF.24.0280 DYNEIN INTERMEDIATE-CHAIN-LIKE PROTEIN): 0.97 | fold change (protein LMJF.24.0770 MALIC ENZYME, PUTATIVE): 0.95 | fold change relative to vehicle control (protein LMJF.24.1510 IGE-DEPENDENT HISTAMINE-RELEASING FACTOR, PUTATIVE): 1.09 | fold change vs vehicle control (protein LMJF.24.1630, SUCCINATE DEHYDROGENASE FLAVOPROTEIN, PUTATIVE): 0.9 | fold change vs vehicle control (protein LMJF.24.1840 LYSOPHOSPHOLIPASE, PUTATIVE): 1.07 | fold change relative to vehicle control (protein LMJF.24.2060 TRANSKETOLASE): 0.84 | fold change (protein LMJF.24.2250 FATTY-ACID DESATURASE, PUTATIVE): 1.09 | fold change vs vehicle control (protein LMJF.25.0120 ELECTRON TRANSFER FLAVOPROTEIN, PUTATIVE): 1.75 | fold change vs vehicle control (protein LMJF.25.0260 DYNEIN LIGHT CHAIN 1, CYTOPLASMIC, PUTATIVE): 0.91 | fold change relative to vehicle control (protein LMJF.25.0910 C[…]): 1.46 | fold change vs vehicle control (protein LMJF.25.1180, ATPASE BETA SUBUNIT, PUTATIVE): 1.06 | fold change (protein LMJF.25.1610 HYPOTHETICAL PROTEIN, CONSERVED): 0.79 | fold change (protein LMJF.25.1620 HY[…], CONSERVED): 1.11 | fold change vs vehicle control (protein LMJF.26.1240 HEAT SHOCK PROTEIN 70-RELATED PROTEIN): 1.01 | fold change vs vehicle control (protein LMJF.26.1710 […] OXIDASE SUBUNIT V, PUTATIVE): 1.04 | fold change vs vehicle control (protein LMJF.26.1960 HY[…], CONSERVED): 1.01 | fold change vs vehicle control (protein LMJF.26.2000 HY[…], CONSERVED): 1.05 | fold change vs vehicle control (protein LMJF.27.0420 RIBOKINASE, PUTATIVE): 1.05 | fold change vs vehicle control (protein LMJF.27.1060 CYSTEINE DESULFURASE, PUTATIVE): 0.97 | fold change (protein LMJF.27.1310 ARGINYL-TRNA SYNTHETASE, PUTATIVE): 1.05 | fold change vs vehicle control (protein LMJF.27.2400 HEAT SHOCK PROTEIN DNAJ, PUTATIVE): 0.91 | fold change vs vehicle control (protein LMJF.28.0110 […] 3 SUBUNIT, PUTATIVE): 1.04 | fold change vs vehicle control (protein LMJF.28.0930 HYPOTHETICAL PROTEIN, CONSERVED): 1 | fold change vs vehicle control (protein LMJF.28.0950 HY[…], CONSERVED): 1.07 | fold change vs vehicle control (protein LMJF.28.1950 X-PRO, DIPEPTIDYL-PEPTIDASE,SERINE PEPTIDASE, CLAN SC, FAMILY S15, PUTATIVE): 0.94 | fold change relative to vehicle control (protein LMJF.28.2770 HEAT-SHOCK PROTEIN HSP70, PUTATIVE): 1.15 | fold change (protein LMJF.29.0060 TRYPTOPHANYL-TRNA SYNTHETASE, PUTATIVE): 1 | fold change (protein LMJF.29.0820 CYSTEINE PEPTIDASE C (CPC)): 0.78 | fold change relative to vehicle control (protein LMJF.29.0850 HIGH MOBILITY GROUP PROTEIN HOMOLOG TDP-1, PUTATIVE): 1.77 | fold change vs vehicle control (protein LMJF.29.1160 TRYPAREDOXIN): 1 | fold change (protein LMJF.29.1760 PARAFLAGELLAR ROD PROTEIN 1D, PUTATIVE): 0.77 | fold change vs vehicle control (protein LMJF.29.1780 DIPHTHAMIDE SYNTHESIS PROTEIN, PUTATIVE): 0.62 | fold change vs vehicle control (protein LMJF.29.2240 AMINOPEPTIDASE, PUTATIVE): 0.98 | fold change (protein LMJF.29.2310 ENOYL-COA HYDRATASE/ISOMERASE-LIKE PROTEIN): 0.95 | fold change (protein LMJF.29.2860 40S RIBOSOMAL PROTEIN S19-LIKE PROTEIN): 1.25 | fold change vs vehicle control (protein LMJF.30.0850 SURFACE PROTEIN AMASTIN, PUTATIVE): 0.97 | fold change (protein LMJF.30.1250 PYRIDOXAL KINASE, PUTATIVE): 1.06 | fold change (protein LMJF.30.2580 RETICULON DOMAIN PROTEIN, 22 KDA POTENTIALLY AGGRAVATING PROTEIN (PAPLE22)): 1.3 | fold change vs vehicle control (protein LMJF.30.3190 3-HYDROXY-3-METHYLGLUTARYL-COA REDUCTASE): 0.77 | fold change vs vehicle control (protein LMJF.30.3520 S-ADENOSYL[…]): 1.09 | fold change vs vehicle control (protein LMJF.31.0440 CYTOSKELETON-[…] CAP5 5, PUTATIVE): 0.82 | fold change (protein LMJF.31.1130 N-ACYL-L-AMINO ACID AMIDOHYDROLASE, PUTATIVE): 0.74 | fold change vs vehicle control (protein LMJF.31.1640 THIOLASE PROTEIN-LIKE PROTEIN): 1.14 | fold change (protein LMJF.31.1800 AMINO ACID PERMEASE): 1.07 | fold change (protein LMJF.31.2250 3,2-TRANS-ENOYL-COA ISOMERASE, MIT[…], PUTATIVE): 0.85 | fold change vs vehicle control (protein LMJF.31.2790 ADP-RI[…], PUTATIVE): 1.12 | fold change (protein LMJF.31.3130 METHYLCROTONOYL-COA CARBOXYLASE BIOTINYLATED SUBUNITPROTEIN-LIKE PROTEIN): 0.91 | fold change (protein LMJF.32.0010 HYPOTHETICAL PROTEIN, CONSERVED): 0.92 | fold change vs vehicle control (protein LMJF.32.0400 ATP-DEPENDENT RNA HELICASE, PUTATIVE): 1 | fold change vs vehicle control (protein LMJF.32.0520 PROFILIN, PUTATIVE): 0.98 | fold change (protein LMJF.32.1000 CHAPERONIN CONTAINING T-COMPLEX PROTEIN, PUTATIVE): 0.99 | fold change vs vehicle control (protein LMJF.32.3010 HY[…], CONSERVED,LEUCINE-RICH REPEAT PROTEIN, PUTATIVE): 1.06 | fold change vs vehicle control (protein LMJF.32.3870 MYOSIN XXI): 0.77 | fold change vs vehicle control (protein LMJF.33.0890, HYPOTHETICAL PROTEIN, CONSERVED): 1.1 | fold change vs vehicle control (protein LMJF.33.1070 HYPOTHETICAL PROTEIN, UNKNOWN FUNCTION): 0.91 | fold change (protein LMJF.33.1330 CYSTEINE CONJUGATE BETA-LYASE, AMINOTRANSFERASE- LIKE PROTEIN): 1.04 | fold change (protein LMJF.33.1610 PEPTIDASE M20/M25/M40, PUTATIVE): 0.82 | fold change relative to vehicle control (protein LMJF.33.1630 CYCLOPHILIN 4, PUTATIVE): 1.08 | fold change vs vehicle control (protein LMJF.33.2300 UDP-GLC 4'-EPIMERASE, PUTATIVE): 1.07 | fold change vs vehicle control (protein LMJF.33.2390 HEAT SHOCK PROTEIN, PUTATIVE): 1.41 | fold change (protein LMJF.33.2410 HYPOTHETICAL PROTEIN, CONSERVED): 0.95 | fold change (protein LMJF.33.3150 40S RIBOSOMAL PROTEIN S13, PUTATIVE): 1.11 | fold change (protein LMJF.34.3500 RUVB-LIKE 1 DNA HELICASE, PUTATIVE): 0.93 | fold change (protein LMJF.34.3670 VACUOLAR ATP SYNTHASE CATALYTIC SUBUNIT A, PUTATIVE): 1.02 | fold change (protein LMJF.34.3740 SERINE PALMITOYLTRANSFERASE-LIKE PROTEIN): 0.91 | fold change (protein LMJF.34.4120 HYPOTHETICAL PROTEIN, CONSERVED): 0.82 | fold change vs vehicle control (protein LMJF.34.4370 20S PROTEASOME BETA 7 SUBUNIT, (PUTATIVE)): 0.95 | fold change (protein LMJF.35.0370 ATP-DEPENDENT DEAD-BOX RNA HELICASE, PUTATIVE): 1.01 | fold change vs vehicle control (protein LMJF.35.1380, MITOCHONDRIAL PROCESSING PEPTIDASE, BETA SUBUNIT, PUTATIVE): 0.97 | fold change vs vehicle control (protein LMJF.35.1410 THREONYL-TRNA SYNTHETASE, PUTATIVE): 0.94 | fold change vs vehicle control (protein LMJF.35.1720 CYCLOPHILIN 14, PUTATIVE): 1.02 | fold change (protein LMJF.35.2500 HYPOTHETICAL PROTEIN, CONSERVED): 0.72 | fold change (protein LMJF.35.2730 ACYL-COA DEHYDROGENASE, PUTATIVE): 0.86 | fold change relative to vehicle control (protein LMJF.35.3010 […],TRYPANOTHIONE-DEPENDENT […]): 1.13 | fold change vs vehicle control (protein LMJF.35.3100 ATP-DEPENDENT RNA HELICASE, PUTATIVE): 0.99 | fold change vs vehicle control (protein LMJF.35.3340 6-phosphogluconate dehydrogenase): 1.08 | fold change (protein LMJF.35.3700 GIM5A PROTEIN, PUTATIVE,GLYCOSOMAL MEMBRANE PROTEIN): 0.94 | fold change vs vehicle control (protein LMJF.35.3840, […] 2 SUBUNIT, PUTATIVE): 1.01 | fold change vs vehicle control (protein LMJF.35.3860 T-COMPLEX PROTEIN 1, ETA SUBUNIT, PUTATIVE): 0.99 | fold change (protein LMJF.35.4550 HYPOTHETICAL PROTEIN, CONSERVED): 0.97 | fold change (protein LMJF.35.4770 CYCLOPHILIN 40): 1.17 | fold change (protein LMJF.35.4850 PROTEASOME ALPHA 1 SUBUNIT, PUTATIVE): 0.91 | fold change (protein LMJF.35.4860 HYPOTHETICAL PROTEIN, CONSERVED): 0.85 | fold change relative to vehicle control (protein LMJF.35.5330 ISOPENTENYL-DIPHOSPHATE DELTA-ISOMERASE, PUTATIVE,ISOMERASE, PUTATIVE): 1.62 | fold change vs vehicle control (protein LMJF.36.0180 […] 2): 1.03 | fold change vs vehicle control (protein LMJF.36.0620 HY[…], CONSERVED): 1.34 | fold change vs vehicle control (protein LMJF.36.0990 40S RIBOSOMAL PROTEIN S10, PUTATIVE): 1.1 | fold change vs vehicle control (protein LMJF.36.2020 CHAPERONIN HSP60, MITOCHONDRIAL PRECURSOR): 0.95 | fold change vs vehicle control (protein LMJF.36.3460 HYPOTHETICAL PROTEIN, CONSERVED): 0.82 | fold change (protein LMJF.36.3760 60S RIBOSOMAL PROTEIN L10A, PUTATIVE): 1.26 | fold change vs vehicle control (protein LMJF.36.3840 GLYCYL TRNA SYNTHETASE, PUTATIVE): 0.85 | fold change vs vehicle control (protein LMJF.36.4170 OXIDOREDUCTASE, PUTATIVE): 0.84 | fold change vs vehicle control (protein LMJF.36.5010 40S RIBOSOMAL PROTEIN SA, PUTATIVE): 1.09 | fold change (protein LMJF.36.5390 PHOSPHORIBOSYLPYROPHOSPHATE SYNTHETASE, PUTATIVE): 0.86 | fold change vs vehicle control (protein LMJF.36.5620 ISOLEUCYL-TRNA SYNTHETASE, PUTATIVE): 0.97 | fold change vs vehicle control (protein LMJF.36.6430 PROTEIN TRANSPORT PROTEIN SEC23-LIKE PROTEIN): 0.85 | fold change (protein LMJF.36.6760 HY[…], CONSERVED): 1.01 | fold change vs vehicle control (protein LMJF.36.6910 T-COMPLEX PROTEIN 1, THETA SUBUNIT, PUTATIVE): 1 | fold change vs vehicle control (protein LMJF.36.6940 disulfide isomerase PDI): 1.14 | fold change vs vehicle control (protein LMJF.[…] […] EXOPOLYPHOSPHATASE, PUTATIVE): 1.19
